We go through one compound from patent publication US20100331267A1, “USE OF CYCLOHEXANEHEXOL DERIVATIVES IN THE TREATMENT OF ALPHA-SYNUCLEINOPATHIES” (priority 2007, published 2010).

The structures appear in SMILES notation.

For test [1], the target named is T1, A53T mutant of α-synuclein (Homo sapiens, UniProt P37840, A53T).
T1 construct: made in house; host or cells: E. coli
The test can be described thus: Negative stain electron microscopy of α-synuclein fibre formation. The test is classed as biochemical. The method, then: α-Synuclein will be purified from E. coli expressing the native and the aggregation prone A53T mutant proteins via chromatography on a Q-sepharose column.[10, 12] Recombinant α-synuclein spontaneously aggregates into fibers upon incubation at high concentrations 2 mg/ml. To assay the α-synuclein aggregation the proteins will then be incubated at 37° C. (50 mM Tris, pH 7.5) with shaking in the presence and absence of the inositols in varying ratios from 1:1 to 1:100 protein:inositol. The products of these incubations will be evaluated with the biophysical techniques discussed below. Negative stain electron microscopy is an excellent tool to examine the gross morphology of the protein aggregates formed. Samples will be examined as a function of time and scyllo-inositol concentrations.

The target in test [2] is T2, α-synuclein (Homo sapiens, UniProt P37840, A53T).
T2 construct: made in house; host or cells: E. coli
The test can be described thus: Thioflavin T binding assay of α-synuclein aggregation. Format: biochemical. To be noted: α-synuclein 2 mg/ml, 24 hrs at 37° C., scyllo-inositol 1:20 ratio by weight. The procedure:
α-Synuclein will be purified from E. coli expressing the native and the aggregation prone A53T mutant proteins via chromatography on a Q-sepharose column.[10, 12] Recombinant α-synuclein spontaneously aggregates into fibers upon incubation at high concentrations 2 mg/ml. To assay the α-synuclein aggregation the proteins will then be incubated at 37° C. (50 mM Tris, pH 7.5) with shaking in the presence and absence of the inositols in varying ratios from 1:1 to 1:100 protein:inositol. The products of these incubations will be evaluated with the biophysical techniques discussed below.
Fluorimetry. Fluorescent probes are exceptionally useful to follow the aggregation kinetics of proteins. Two fluorescent probes, Thioflavin T (ThT) and 1-Anilinonaphthalene-8-sulfonic acid (ANS) are the most commonly used probes for α-synuclein. […] Thus, the amyloid fibrils formed from the proteins used in these studies bind ThT and binding is monitored by an increase in fluorescence intensity. Oligomers other than the amyloid fibrils can also have significant β-sheet character and bind ThT. ANS binds to hydrophobic unstructured proteins and is complementary to ThT fluorescence assays. Upon binding in a hydrophobic environment ANS undergoes an increase in quantum yield and a blue shift in its fluorescence emission maximum.

For test [3], the system named is Aβ peptide fibrils. As to conditions: stated as previously shown; cited from earlier work.

For `O[C@H]1[C@H](O)[C@@H](O)[C@H](O)[C@@H](O)[C@@H]1O` [scyllo-inositol], in test [1] (A53T mutant, after 24 hours of incubation at 37° C., without compound: characteristic α-synuclein fibrils), the “aggregates produced (negative stain EM, FIG. 1)” value is “a few thin fibrils with the majority of the visible protein being present as amorphous aggregates”. Further, the “α-synuclein fibres formed (negative stain electron microscopy, FIG. 1 legend)” value in test [1] (α-synuclein 2 mg/ml, scyllo-inositol 1:20 ratio by weight, 2 days at 37° C., alone: long mature fibres) is given as “only small aggregates could be detected”. Besides, the “Thioflavin T fluorescence (FIG. 2)” value in test [2] is “fluorescence increases upon short incubations with scyllo-inositol and the fluorescence decreases with time”. Further, in test [3], the “disaggregation of preformed Aβ peptide fibrils” value was “able to disaggregate preformed Aβ peptide fibrils”.
